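Grown in 96-well plates, cells were treated for 48 hours with each compound at five concentrations. Insufficient inhibition: endpoint recorded as highest concentration tested. GI50 is the concentration that inhibits growth by half.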 Active and inactive are the calls of the source. Cut-off read from the data, not from the text of the source: active = GI50 up to about 1.1 µM and inactive = higher.
Columns and labels:
Assay in all cases: NCI tumour cell line growth inhibition, 48 h
[1] = tested on: SNB-19
[2] = tested on: LOX IMVI
[3] = tested on: EKVX
[4] = tested on: HCC 2998
[5] = tested on: DMS-273
[6] = tested on: UACC-62
[7] = tested on: COLO 205
[8] = tested on: Malme-3M
[9] = tested on: A549
[10] = tested on: IGROV-1
[11] = tested on: M14
[12] = tested on: SK-MEL-2
[13] = tested on: HL-60
[14] = tested on: LXFL 529
[15] = tested on: SNB-75
[16] = tested on: SF-295

Row | SMILES | GI50 [1] | GI50 [2] | GI50 [3] | GI50 [4] | GI50 [5] | GI50 [6] | GI50 [7] | GI50 [8] | GI50 [9] | GI50 [10] | GI50 [11] | GI50 [12] | GI50 [13] | GI50 [14] | GI50 [15] | GI50 [16]
1 | CCOC(=O)NC1CC2CCC1(OC)C=C2C (stereo not given) | > 100 µM (inactive) | > 100 µM (inactive) | > 100 µM (inactive) | > 100 µM (inactive) | > 100 µM (inactive) | > 100 µM (inactive) | > 100 µM (inactive) | > 100 µM (inactive) | > 100 µM (inactive) | > 100 µM (inactive) | > 100 µM (inactive) | > 100 µM (inactive) | > 100 µM (inactive) | > 100 µM (inactive) | > 100 µM (inactive) | > 100 µM (inactive)
2 | CCNC(C)Cc1ccccc1 (stereo not given) | > 100 µM (inactive) | > 100 µM (inactive) | > 100 µM (inactive) | > 100 µM (inactive) | > 100 µM (inactive) | > 100 µM (inactive) | > 100 µM (inactive) | > 100 µM (inactive) | > 100 µM (inactive) | > 100 µM (inactive) | > 100 µM (inactive) | > 100 µM (inactive) | > 100 µM (inactive) | > 100 µM (inactive) | 6.71 µM (inactive) | > 100 µM (inactive)
3 | COc1cc([C@@H]2c3cc4c(cc3[C@@H](NC(=O)c3ccc(C(C)=O)cc3)C3COC(=O)[C@@H]32)OCO4)cc(OC)c1O (stereo not given in full) | 0.29 µM (active) | 0.289 µM (active) | 1.89 µM (inactive) | 1.41 µM (inactive) | 0.0556 µM (active) | 0.206 µM (active) | 3.61 µM (inactive) | 0.254 µM (active) | 0.0311 µM (active) | 1.03 µM (active) | 1.51 µM (inactive) | 2.82 µM (inactive) | 0.0867 µM (active) | 5.56 µM (inactive) | 1.24 µM (inactive) | 0.6 µM (active)
4 | CC(C)(C)C1=CC(=N/N=c2\scc(-c3ccccc3)n2Cc2ccccc2)C=C(C(C)(C)C)C1=O | > 100 µM (inactive) | > 100 µM (inactive) | > 100 µM (inactive) | > 100 µM (inactive) | > 100 µM (inactive) | > 100 µM (inactive) | > 100 µM (inactive) | > 100 µM (inactive) | > 100 µM (inactive) | – | > 100 µM (inactive) | > 100 µM (inactive) | > 100 µM (inactive) | > 100 µM (inactive) | > 100 µM (inactive) | > 100 µM (inactive)
5 | CC1=CC(C)(C)N=C2SC(c3ccc(N)cc3)=NN12 | > 87.3 µM (inactive) | > 58.5 µM (inactive) | 24.9 µM (inactive) | > 100 µM (inactive) | > 42.9 µM (inactive) | 44.6 µM (inactive) | 42.8 µM (inactive) | > 100 µM (inactive) | 51.9 µM (inactive) | > 100 µM (inactive) | > 83.8 µM (inactive) | – | 18.1 µM (inactive) | 31.6 µM (inactive) | > 52.5 µM (inactive) | > 91.8 µM (inactive)
6 | COc1ccc(N2C(=O)[C@@H]3[C@@H]4CC(C)CC[C@@H]4c4c([nH]c5ccccc45)[C@@H]3C2=O)cc1 (stereo not given in full) | 8.24 µM (inactive) | 10.5 µM (inactive) | 28.9 µM (inactive) | 13.5 µM (inactive) | 14.7 µM (inactive) | 15.9 µM (inactive) | 33 µM (inactive) | 34.4 µM (inactive) | 17.3 µM (inactive) | 18.8 µM (inactive) | 26.4 µM (inactive) | 8.79 µM (inactive) | 29.1 µM (inactive) | 20.3 µM (inactive) | 2.82 µM (inactive) | 12.4 µM (inactive)
7 | O=C1NC(=O)C2C(=O)NC(=O)C1C2(c1ccccc1)c1ccc(Cl)cc1 (stereo not given) | > 100 µM (inactive) | > 100 µM (inactive) | > 100 µM (inactive) | > 100 µM (inactive) | > 100 µM (inactive) | > 100 µM (inactive) | > 100 µM (inactive) | > 100 µM (inactive) | > 100 µM (inactive) | > 100 µM (inactive) | > 100 µM (inactive) | > 100 µM (inactive) | > 100 µM (inactive) | > 100 µM (inactive) | > 100 µM (inactive) | > 100 µM (inactive)
8 | CN(/N=C/c1cccc2cccnc12)c1ccccc1 | 59.8 µM (inactive) | > 100 µM (inactive) | > 100 µM (inactive) | 86.1 µM (inactive) | 85.7 µM (inactive) | > 100 µM (inactive) | > 100 µM (inactive) | > 100 µM (inactive) | > 100 µM (inactive) | 73.6 µM (inactive) | > 100 µM (inactive) | 41.1 µM (inactive) | > 100 µM (inactive) | 89.3 µM (inactive) | 20.4 µM (inactive) | 99.3 µM (inactive)
9 | NC12CC3CC(C1)CC(Cl)(C3)C2 | – | > 100 µM (inactive) | > 100 µM (inactive) | > 100 µM (inactive) | > 100 µM (inactive) | > 100 µM (inactive) | > 100 µM (inactive) | > 100 µM (inactive) | > 100 µM (inactive) | > 100 µM (inactive) | > 100 µM (inactive) | > 100 µM (inactive) | > 100 µM (inactive) | > 100 µM (inactive) | > 100 µM (inactive) | –
10 | Cc1noc(/N=C2\C=C(Nc3onc(C)c3C)C(=O)c3ccccc32)c1C | > 100 µM (inactive) | 11 µM (inactive) | > 100 µM (inactive) | > 100 µM (inactive) | > 100 µM (inactive) | 27.7 µM (inactive) | > 100 µM (inactive) | > 100 µM (inactive) | 87.1 µM (inactive) | > 100 µM (inactive) | > 100 µM (inactive) | 48.1 µM (inactive) | 18.7 µM (inactive) | 25.5 µM (inactive) | 69.3 µM (inactive) | > 100 µM (inactive)
11 | O=C(CCN(C(=O)O)S(=O)(=O)c1ccc(NC(=O)c2ccccc2)cc1)NC1CCCCC1 | > 100 µM (inactive) | > 100 µM (inactive) | > 100 µM (inactive) | > 100 µM (inactive) | 21.7 µM (inactive) | > 100 µM (inactive) | 47.4 µM (inactive) | > 100 µM (inactive) | > 100 µM (inactive) | > 100 µM (inactive) | > 100 µM (inactive) | > 100 µM (inactive) | 30.3 µM (inactive) | > 100 µM (inactive) | > 100 µM (inactive) | > 100 µM (inactive)
12 | CC(=O)OCC1OC(n2cc([N+](=O)[O-])c(=O)[nH]c2=O)C(OC(C)=O)C(OC(C)=O)C1OC(C)=O (stereo not given) | > 100 µM (inactive) | > 100 µM (inactive) | > 100 µM (inactive) | > 100 µM (inactive) | > 100 µM (inactive) | > 100 µM (inactive) | > 100 µM (inactive) | > 100 µM (inactive) | > 100 µM (inactive) | > 100 µM (inactive) | > 100 µM (inactive) | > 100 µM (inactive) | > 100 µM (inactive) | > 100 µM (inactive) | 54.6 µM (inactive) | > 100 µM (inactive)
13 | COc1ccc2c(c1)[n+]([O-])c(-c1c(Cl)cccc1Cl)c(N)[n+]2[O-] | 50 µM (inactive) | 66.1 µM (inactive) | 61.5 µM (inactive) | 72.3 µM (inactive) | 37.5 µM (inactive) | 37.7 µM (inactive) | 30.2 µM (inactive) | 21.3 µM (inactive) | 45.2 µM (inactive) | 47.4 µM (inactive) | 31.5 µM (inactive) | 26 µM (inactive) | 36.8 µM (inactive) | 39.9 µM (inactive) | > 100 µM (inactive) | 61 µM (inactive)
14 | CCOC(=O)C1=C(N)N(c2ccccc2)/C(=C(/C#N)c2nc3ccccc3[nH]2)S1 | > 100 µM (inactive) | > 100 µM (inactive) | > 100 µM (inactive) | – | > 100 µM (inactive) | > 100 µM (inactive) | > 100 µM (inactive) | > 100 µM (inactive) | > 100 µM (inactive) | > 100 µM (inactive) | > 100 µM (inactive) | > 100 µM (inactive) | > 100 µM (inactive) | > 100 µM (inactive) | > 100 µM (inactive) | > 100 µM (inactive)
15 | C=C1C(=O)C23C(O)CC4C5(C)CCCC4(C(O)OC5)C2C(OC(C)=O)CC1C3O (stereo not given) | 14.7 µM (inactive) | 13.5 µM (inactive) | 14.6 µM (inactive) | 18.2 µM (inactive) | 17.9 µM (inactive) | 6.73 µM (inactive) | 5.16 µM (inactive) | 14.3 µM (inactive) | 20.8 µM (inactive) | 19.4 µM (inactive) | 3.41 µM (inactive) | 13.8 µM (inactive) | – | 2.61 µM (inactive) | 4.28 µM (inactive) | 21.5 µM (inactive)
16 | CC(C)=CCCC(C)[C@H]1CC(O)C2(C)C3=CCC4C(C)(C)[C@@H](O)CC[C@]4(C)C3=CC[C@]12C (stereo not given in full) | 12.1 µM (inactive) | 0.0902 µM (active) | 26 µM (inactive) | – | 1.57 µM (inactive) | 4.23 µM (inactive) | 4.93 µM (inactive) | 13.5 µM (inactive) | 2.66 µM (inactive) | 9.29 µM (inactive) | 3.27 µM (inactive) | 23.3 µM (inactive) | 3.69 µM (inactive) | 1.95 µM (inactive) | 7.48 µM (inactive) | 2.24 µM (inactive)
17 | CC(=O)N/C=C/c1cc(O)ccc1O | > 52.7 µM (inactive) | 30.1 µM (inactive) | 45.2 µM (inactive) | 50.8 µM (inactive) | > 67.5 µM (inactive) | 32.2 µM (inactive) | 29.1 µM (inactive) | > 44.6 µM (inactive) | > 61.8 µM (inactive) | > 55.1 µM (inactive) | 33.3 µM (inactive) | 34.9 µM (inactive) | 10.1 µM (inactive) | 12.7 µM (inactive) | 48.3 µM (inactive) | 32.3 µM (inactive)

— ChEMBL document CHEMBL1201862, “PubChem BioAssay data set” (2004)
